Structures can show the parent of a compound that is named as a salt.
Experiments:
[1] = test system: iPSC-derived excitatory cortical neurons (NGN2) with loss of function knockout (KO); assay: Optopatch action potential features in knockout disease-model iPSC-derived cortical neurons; assay type: cell-based, human; conditions: for cell behavior projected onto the phenotype/side effect space: KO cells, 8 concentrations from 0.28 to 600 μM, two replicates; for reversal of functional phenotype of disease-model cells (radar plots of action potential features): KO disease-model cells, features normalized to control cells
Protocol: In this example, iPSC-derived excitatory cortical neurons (NGN2) were grown for 30 days in a culture. The neurons expressed Optopatch proteins as described in Example 1. Two sets of neurons were grown. The first was a wildtype control line. […] The cells were stimulated using blue light as described in Example 1 and their action potentials recorded as voltage traces. Recordings were made of the control cells and disease-model cells when stimulated in the absence of any test compound. Recordings were also made of the disease-model cells when stimulated in the presence of the promiscuous potassium channel blocker 4-AP and the promiscuous sodium channel blocker lamotrigine.
FIG. 19 provides radar plots showing action potential features extracted from the recorded action potential features when stimulated by blue light. The values for the features are normalized to the control cell recordings. […] The differences in the recorded traces, select features of which are provided on the radar plots, show the functional phenotype of the disease-model in red.
FIG. 20 is a diagram illustrating phenotype reversal and “side effects” described by mapping extracted action potential features on the ˜300-dimensional space of recorded parameters, only two of which are shown. Extracted features for the control cell (WT) wells (green) are clustered as are those for the KO cells (red). The vector between these populations represents the phenotype (red). Drug effects (blue) are deconstructed into components along (phenotype reversal) and orthogonal to (side effects) the phenotype vector. An ideal drug would undo the effects of the mutation and move the well from the KO cluster to the control cell cluster.
FIG. 21 is a plot showing many wells projected onto the phenotype/side effect space. WT and KO wells are well separated along the phenotype direction. Application of the two compounds (8 concentrations from 0.28 to 600 μM) from FIG. 25 have increasing effects on KO cell behavior as the concentration increases. […] The connected drug points are in order of increasing concentration, and the two lines are experimental replicates on two consecutive weeks of experiment.

[2] = test system: KCNQ2 R201C gain-of-function mutant line; assay: Drug fingerprint phenotype reversal in KCNQ2 R201C line; assay type: cell-based; conditions: several concentrations
Description: (§1) An autoencoder reduces 518 features extracted from Optopatch measurements through an 8-dimensional bottleneck layer (the “embedding”) before attempting to expand back out and reconstruct the initial inputs. The embeddings are information-dense and (because of the preceding depth) reflect high-order representations. The autoencoder may implement a swish activation function between any layers (e.g., between the 518 and 50 dimensional layers, or between the 50 and 25 dimensional layers. Activation functions extend neural networks behavior to non-linear data. Thus the autoencoder is useful for deriving drug fingerprints with representation learning.
For example, the potassium voltage-gated channel subfamily Q member 2 (KCNQ2) protein and gene are implicated in KCNQ2 encephalopathy, which typically presents with seizures in the first week of life. It is understood that mutation of […] at position 201 in KCNQ2 (R201C) is a gain-of-function mutation that may give rise to KCNQ2 encephalopathy. Using methods of the invention, neurons with and without the R201C mutation may be measured with optopatch and a system such as an autoencoder may create a phenotype. Each phenotype may be plotted in the 8-dimensional space by the autoencoder, which may also plot a drug fingerprint. […]

[3] = test system: hiPSC-derived motor neurons; assay: Optopatch excitability recording in hiPSC-derived motor neurons, before and after compound addition; assay type: cell-based, human; conditions: 1 μM ML213; same field of view recorded before and after addition; blue light stimulus
Description: Human induced pluripotent stem cells (hiPSC) were differentiated into hiPSC-derived motor neurons. The cells expressed an optogenetic proteins from the Optopatch toolkit (optical stimulation plus optical voltage reporting, e.g., CheRiff & QuasAr), which allows simultaneous optical stimulation and recording of neuronal action potentials.
The channelrhodopsin CheRiff enables action potential stimulation with blue light and the voltage-sensitive fluorescent protein QuasAr enables high-speed electrical recordings with red light. A microscope, as disclosed herein, obtained simultaneous voltage recordings from >100 individual neurons over a large (0.5×4 mm) field of view (FOV) with 1 ms temporal resolution and high signal-to-noise ratio (SNR). A digital micromirror device (DMD) in the microscope projected a fully reconfigurable optical pattern to sequentially stimulate individual cells while recording from many post-synaptic partners. […]
In every voltage trace the spikes were detected and the key spike shape and timing parameters were computed. […]
Pixels in the recording that captured fluorescence from the reporters of membrane potential in each neuron co-varied in time following that cell's unique firing pattern. […] Each FOV was recorded twice, before and after addition of potassium channel opener ML213. […]

[4] = test system: E18 rat hippocampal neurons; assay: Optopatch spiking behavior of cultured rat hippocampal neurons with compounds; assay type: cell-based; conditions: for drug-induced changes in neuronal spiking behavior (radar plots): features normalized to control vehicle
Protocol: E18 rat hippocampal neurons were cultured for 14 days and caused to express Optopatch proteins as described in Example 1. The cells were stimulated in the presence of XE-991 (a Kv7.x blocker), ML-213 (a Kv7.x opener), α-Dendrotoxin (a Kv1.x blocker), OXO-M (a muscarinic agonist), 4AP (a promiscuous Kv blocker), Isradipine (a Cav1.x blocker), or a control vehicle.
FIG. 22 provides radar plots showing the drug-induced changes in neuronal spiking behavior along many dimensions, which are merely a subset of the action potential features extracted from recordings of the stimulated cells in the presence of one of the listed compounds. The action potential feature values were normalized to those for the cells simulated in the presence of the control vehicle. As shown in the radar plots, each compound provided a discernable and unique effect to the action potential features of the cell.
E18 rat hippocampal neurons were cultured for 14 days and caused to express Optopatch proteins as described in Example 1. The cells were placed in wells of a 96-well plate. ML-213 at 1 μM was added to alternating columns of the plate and a control vehicle added to the remaining columns. The cells in all wells were stimulated and their action potentials recorded using a microscope as described in Example 1.

[5] = test system: neurons; assay: Nearest neighbor matching of 8-dimensional drug fingerprints across the 400 compound library; assay type: cell-based; conditions: nearest neighbor query across the 400 compound library
Description: as §1
Over 400 compounds have been assessed in 10-point concentration response curves (CRCs) in neuronal excitability assays.
In general, the highest concentrations of the compounds are associated with the largest deviation from control. The action potential traces of FIG. 48 are shown to the autoencoder of FIG. 45, which derives for each compound an 8-dimensional fingerprint such as the two (two replicates of one compound) shown in FIG. 46. […]
GSK 3787 is a potent and selective peroxisome proliferator-activated receptor δ (PPARδ) antagonist. […] Software may read hundreds (e.g., 512) of features of action potentials fluorescently shown in the movies. […]

[6] = test system: neurons; assay: Drug fingerprint activity detector in the 400 compound screen; assay type: cell-based; conditions: Retigabine positive CTL wells
Description: To address this challenge, the invention provides a neuronal fingerprinting-based activity detector. In embodiments, the method calculates the fingerprints for each sample, then determines which fingerprints lie inside the “cloud of inertness” defined by the high-n replication of control wells. Samples that give a very low probability of being inert are then labeled as active. This technique is enabled by two assets: 1) a fitted fingerprinting algorithm, such as is described above, with which to find fingerprints and 2) control samples to populate the “cloud of inertness” at the center of the fingerprint space. The determination of the probability of inertness can be made using several computationally inexpensive techniques, including multivariate gaussian distributions and nonparametric kernel density estimation.
FIG. 59 illustrates a drug fingerprint as an activity detector, which could be used for inertness identifier as well. […] Bioactivity of compounds across varying concentrations can be automatically detected in the trained drug space. […] Throughout the 400 compound screen, activity was detected for 99.8% of the Retigabine positive CTL wells and 25.1% of experimental wells (403 compounds across 10 concentrations). For compounds where activity was detected, activity was detected for 49.5% of the wells with the highest third of doses and for 61% of the highest doses. […]

| SMILES | cell behavior projected onto the phenotype/side effect space [1] | reversal of functional phenotype of disease-model cells (radar plots of action potential features) [1] | drug-induced changes in neuronal spiking behavior (radar plots) [4] | also measured |
| --- | --- | --- | --- | --- |
| Nc1ccncc1 [4-AP] | moves cell behavior toward and beyond WT behavior | substantially reversed the phenotype |  |  |
| O=C1N(c2ccccc2)c2ccccc2C1(Cc1ccncc1)Cc1ccncc1 [Linopirdine hydrochloride] |  |  |  | reversal of KCNQ2 R201C gain-of-function phenotype in 8-dimensional drug fingerprint space [2]: reverses the disease phenotype |
| Cc1cc(C)c(NC(=O)C2CC3CCC2C3)c(C)c1 (centres unmarked) [ML213] |  |  | drove cellular response, as expected | neuronal excitability [3]: clear reduction in neuronal excitability; average firing rate during the blue light stimulus ramp ([4]; ML-213 at 1 μM versus vehicle, 96-well plate): dramatically reduces firing rate; drug fingerprint similarity to query compound ICA-27243 [5]: highly similar drug fingerprints |
| CCOC(=O)Nc1ccc(NCc2ccc(F)cc2)cc1N [Retigabine] |  |  |  | wells in which activity was detected [6]: 99.8% |
| O=C1c2ccccc2C(Cc2ccncc2)(Cc2ccncc2)c2ccccc21 [XE-991] |  |  | drove cellular response, as expected |  |
| Nc1nnc(-c2cccc(Cl)c2Cl)c(N)n1 [lamotrigine] | moves behavior away from both WT and KO | perturbed behavior but did not reverse the phenotype |  |  |

Reference: patent US20220357313A1, “DRUG FINGERPRINTING” (Q-STATE BIOSCIENCES, INC., priority 2021, published 2022)
